Data published in patent publication US4489096A, “Quinone compounds, their production and use” (Takeda Chemical Industries, Ltd., priority 1982, dated 1984).

Columns and labels:
[1] = system: 5-lipoxygenase products (5-HETE) in RBL-1 cells; test: Inhibition of 5-lipoxygenase products in RBL-1 cells (5-HETE production, HPLC); format: cell-based; details: Rattus norvegicus, 20 min, arachidonic acid + A-23187, 37° C., read-out: Percent inhibition of generation and release of 5-HETE; for inhibition at 10 µM: 10^-5 M test compound; for inhibition at 1 µM: 10^-6 M test compound
Protocol: RBL-1 cells (rat basophilic leukemia cells) (10^7 cells) were suspended in 0.5 ml of MCM (mast cell medium), the test solution (composed of 0.5 ml MCM, 50 μg arachidonic acid, 10 μg A-23187 and 10^-6 M or 10^-5 M quinone compound) was added, and the mixture was incubated at 37° C. for 20 minutes. Thereafter, 4 ml of ethanol and 1,4-dimethoxy-2-methyl-3-(3-methoxypropyl)naphthalene (internal standard) were added, and the mixture was shaken well, then allowed to stand at room temperature for 10 minutes, and centrifuged at 2,000 revolutions per minute for 10 minutes. The supernatant was collected and concentrated to about 200 μl under reduced pressure. A mixed solvent for high performance liquid chromatography [CH3 CN (1500)-CH3 OH (500)-water (1100)-acetic acid (2), adjusted to pH 5.6 with aqueous ammonia] was added to the concentrate to make up to 1 ml. A 200-μl portion of this solution was subjected to high performance liquid chromatography for assaying 5-HETE (5-hydroxyeicosatetraenoic acid).
The percentage of inhibition of 5-HETE production (IE) is expressed by (1-b/a)×100, where a is the peak height or area corrected relative to the internal standard peak for the quinone compound-free (control) test solution and b is the peak height or area corrected in relation to the internal standard peak for the quinone compound-containing test solution.

[2] = system: SRS-A generation and release; test: Inhibitory effect on generation and release of SRS-A (sensitized guinea pig lung fragments, antigen egg white albumin); format: cell-based, guinea pigs (Hartley strain); details: Cavia porcellus; 10^-6 M test compound; number of experiments 3; lung fragments from sensitized guinea pigs
Protocol: The compounds obtained in accordance with the invention were assayed for the inhibitory effect on the generation of SRS-A by the method of Orange and Moore [J. Immunol., vol. 116, page 392 (1976)]. Thus, the test compound and antigen (egg white albumin) were simultaneously added to the lung fragments from guinea pigs (Hartley strain, male and female, weighing 300-350 g) sensitized with egg white albumin as the antigen. The quantity of SRS-A generated and released on that occasion was determined by the method of Brocklehurst [J. Physiol., vol. 151, pages 416-435 (1960)].

In the case of `CCCCCC#CCC#CCC#CCC#CCCCC(=O)O` [ETYA, 5,8,11,14eicosatetraynoic acid, reference compound], the inhibition at 10 µM [1] is reported as 39.4% and the inhibition at 1 µM [1] is reported as 35.9%.

Compound `CC1=C(C)C(=O)C(CCCCC#CCCCC#CC=O)=C(C)C1=O` [Ia-1] has an inhibition at 1 µM [2] of 59 ± 15%, an inhibition at 10 µM [1] of 83.5% and an inhibition at 1 µM [1] of 71.6%.

For `COC1=C(OC)C(=O)C(CCCCC#CCCCC#CC=O)=C(C)C1=O` [Ia-2], the inhibition at 1 µM [2] was 66 ± 6%, the inhibition at 10 µM [1] was 84.3% and the inhibition at 1 µM [1] was 72.3%.

Compound `CC1=C(C)C(=O)C(CCCCC#CCCCC#CC(=O)O)=C(C)C1=O` [Ia-3, 2,3,5-trimethyl-6-(11-carboxyundeca-5,10-diynyl)-1,4-benzoquinone] has an inhibition at 1 µM [2] of 58 ± 6%, an inhibition at 10 µM [1] of 86.7% and an inhibition at 1 µM [1] of 75.3%.

With `COC1=C(OC)C(=O)C(CCCCC#CCCCC#CC(=O)O)=C(C)C1=O` [Ia-4] the inhibition at 1 µM [2] was 61 ± 8%, the inhibition at 10 µM [1] was 85.4% and the inhibition at 1 µM [1] was 70.6%.
